According to article PMC7163368 (British Journal of Clinical Pharmacology, 2020):
Several values for one entry are separate records, joined by “and”; a condition that tells them apart may be missing. Identical values can stand only once. Entries after “also recorded” stand apart in the source; their conditions may differ.

What was measured:
[1] = molecular target: DPP‐IV (Homo sapiens, UniProt P27487); assay: Plasma DPP-IV activity; type: in vivo; settings: for Post‐dose DPP‐IV activity over 24 hours: day 0, mean
[2] = Safety and tolerability: adverse events, laboratory, ECG, physical examination; type: in vivo, human
[3] = 30 mg i.v. (n = 5), day 0, mean (SD)
[4] = 30 mg s.c. (n = 5), day 0, mean (SD)
[5] = 60 mg s.c. (n = 10), day 0, mean (SD)
[6] = 90 mg s.c. (n = 10), day 0, mean (SD)

DPP‐IV, sequence (P27487 39-766): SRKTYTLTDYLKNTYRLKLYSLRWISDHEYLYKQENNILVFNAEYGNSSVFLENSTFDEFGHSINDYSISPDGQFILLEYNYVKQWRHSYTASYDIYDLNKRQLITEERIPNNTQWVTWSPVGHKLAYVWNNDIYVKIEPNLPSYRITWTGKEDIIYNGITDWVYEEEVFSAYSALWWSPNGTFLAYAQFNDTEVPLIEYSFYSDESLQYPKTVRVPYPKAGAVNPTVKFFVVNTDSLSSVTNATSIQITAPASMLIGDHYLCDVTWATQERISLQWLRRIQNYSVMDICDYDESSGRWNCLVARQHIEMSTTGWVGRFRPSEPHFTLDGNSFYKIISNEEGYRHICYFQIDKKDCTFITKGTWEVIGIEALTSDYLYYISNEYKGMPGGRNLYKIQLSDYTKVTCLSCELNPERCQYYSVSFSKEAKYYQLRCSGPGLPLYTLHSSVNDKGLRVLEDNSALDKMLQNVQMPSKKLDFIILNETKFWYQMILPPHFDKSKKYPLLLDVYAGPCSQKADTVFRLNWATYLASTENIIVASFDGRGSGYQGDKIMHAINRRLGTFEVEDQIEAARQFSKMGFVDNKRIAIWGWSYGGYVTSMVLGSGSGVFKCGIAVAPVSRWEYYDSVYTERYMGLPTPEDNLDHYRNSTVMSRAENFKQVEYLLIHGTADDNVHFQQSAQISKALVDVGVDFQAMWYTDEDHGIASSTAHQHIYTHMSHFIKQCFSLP

Post‐dose DPP‐IV activity over 24 hours ([1]; 30 mg i.v. (n = 5)): 37.83% | AUEC0‐24h [1, 3]: 908 (149) %*h | Lowest DPP‐IV activity [1, 3]: 7.63 (0.95) % | Time to maximum DPP‐IV inhibition ([1]; 30 mg intravenous): 0.5 h | Post‐dose DPP‐IV activity over 24 hours ([1]; 30 mg s.c. (n = 5)): 35.36% | AUEC0‐24h [1, 4]: 849 (74) %*h | Lowest DPP‐IV activity [1, 4]: 8.03 (1.76) % | Time to lowest DPP‐IV activity ([1]; 30 mg subcutaneous): ≤ 2 h | Post‐dose DPP‐IV activity over 24 hours ([1]; 60 mg s.c. (n = 10)): 22.42% | AUEC0‐24h [1, 5]: 538 (44) %*h | Lowest DPP‐IV activity [1, 5]: 7.67 (1.18) % | Time to lowest DPP‐IV activity ([1]; 60 mg subcutaneous): ≤ 2 h | Post‐dose DPP‐IV activity over 24 hours ([1]; 90 mg s.c. (n = 10)): 20.46% | AUEC0‐24h [1, 6]: 491 (86) %*h | Lowest DPP‐IV activity [1, 6]: 7.58 (1.17) % | Time to lowest DPP‐IV activity ([1]; 90 mg subcutaneous): ≤ 4 h | Post‐dose DPP‐IV activity over 24 hours ([1]; 120 mg s.c. (n = 10)): 17.96% | AUEC0‐24h ([1]; 120 mg s.c. (n = 10), day 0, mean (SD)): 431 (93) %*h | DPP‐IV inhibition over 24 hours ([1]; 120 mg s.c. multiple doses, day 6): 86% and > 86% | Maximum AUEC0‐24h ([1]; 120 mg s.c. multiple dosing cohort, day 6, SD: 73): 342 h % | Time to lowest DPP‐IV activity ([1]; 120 mg subcutaneous): ≤ 4 h | DPP‐IV activity reduced to ([1]; all participants receiving 60 mg or more subcutaneously): < 10% | Maximum DPP‐IV inhibition ([1]; all subjects receiving ≥60 mg): > 90% | Lowest DPP‐IV activity ([1]; day 0, subcutaneous administration overall, SD: 1.60): 7.19%
Structure (SMILES): O=C(CN[C@@H]1CCNC1)N1CCC[C@H]1B(O)O [dutogliptin]
AEs with intravenous bolus injection ([2]; 30 mg i.v.): not associated with any AEs | Dose dependence of related systemic AEs ([2]; P > .999): No dose‐dependent increase | Dose dependence of subjects experiencing at least 1 local AE ([2]; P > .999): no dose‐dependent increase | Erythema, related: subjects with at least 1 AE ([2]; Total (n = 40)): 34 (85%) | Fatigue, related: subjects with at least 1 AE ([2]; Total (n = 40)): 2 (5%) | Headache, related: subjects with at least 1 AE ([2]; Total (n = 40)): 2 (5%) | Hematoma, related: subjects with at least 1 AE ([2]; Total (n = 40)): 4 (10%) | Local AEs, related: subjects with at least 1 AE ([2]; Total (n = 40)): 34 (85%) | Other local AEs, related: subjects with at least 1 AE ([2]; Total (n = 40)): 1 (3%) | Other systemic AEs, related: subjects with at least 1 AE ([2]; Total (n = 40)): 2 (5%) | Pain with touching, related: subjects with at least 1 AE ([2]; Total (n = 40)): 8 (20%) | Pain without touching, related: subjects with at least 1 AE ([2]; Total (n = 40)): 3 (8%) | Swelling, related: subjects with at least 1 AE ([2]; Total (n = 40)): 2 (5%) | Systemic AEs, related: subjects with at least 1 AE ([2]; Total (n = 40)): 6 (15%) | Nonrelated serious AE (head injury, hospitalization) ([2]; all cohorts): 1 | Nonrelated severe AEs ([2]; all cohorts): Two nonrelated severe AEs | Related systemic AEs, total ([2]; all cohorts): 6 | Related serious (or severe) adverse events ([2]; all cohorts, 40 healthy males): No related serious adverse events occurred; also recorded: No study drug‐related severe or serious AEs were observed | All AEs, related: subjects with at least 1 AE ([2]; i.v. single dose 30 mg (n = 5)): 0 | Erythema, related: subjects with at least 1 AE ([2]; i.v. single dose 30 mg (n = 5)): 0 | Fatigue, related: subjects with at least 1 AE ([2]; i.v. single dose 30 mg (n = 5)): 0 | Headache, related: subjects with at least 1 AE ([2]; i.v. single dose 30 mg (n = 5)): 0 | Hematoma, related: subjects with at least 1 AE ([2]; i.v. single dose 30 mg (n = 5)): 0 | Induration, related: subjects with at least 1 AE ([2]; i.v. single dose 30 mg (n = 5)): 0 | Local AEs, related: subjects with at least 1 AE ([2]; i.v. single dose 30 mg (n = 5)): 0 | Other local AEs (burning sensation at the injection site), related: subjects with at least 1 AE ([2]; i.v. single dose 30 mg (n = 5)): 0 | Other systemic AEs (dizziness and nausea), related: subjects with at least 1 AE ([2]; i.v. single dose 30 mg (n = 5)): 0 | Pain with touching, related: subjects with at least 1 AE ([2]; i.v. single dose 30 mg (n = 5)): 0 | Pain without touching, related: subjects with at least 1 AE ([2]; i.v. single dose 30 mg (n = 5)): 0 | Swelling, related: subjects with at least 1 AE ([2]; i.v. single dose 30 mg (n = 5)): 0 | Systemic AEs, related: subjects with at least 1 AE ([2]; i.v. single dose 30 mg (n = 5)): 0 | All AEs, related: subjects with at least 1 AE ([2]; s.c. multidose 60 mg (n = 5)): 5 (100%) | Erythema, related: subjects with at least 1 AE ([2]; s.c. multidose 60 mg (n = 5)): 5 (100%) | Fatigue, related: subjects with at least 1 AE ([2]; s.c. multidose 60 mg (n = 5)): 1 (20%) | Headache, related: subjects with at least 1 AE ([2]; s.c. multidose 60 mg (n = 5)): 0 | Hematoma, related: subjects with at least 1 AE ([2]; s.c. multidose 60 mg (n = 5)): 1 (20%) | Induration, related: subjects with at least 1 AE ([2]; s.c. multidose 60 mg (n = 5)): 4 (80%) | Local AEs, related: subjects with at least 1 AE ([2]; s.c. multidose 60 mg (n = 5)): 5 (100%) | Other local AEs, related: subjects with at least 1 AE ([2]; s.c. multidose 60 mg (n = 5)): 0 | Other systemic AEs, related: subjects with at least 1 AE ([2]; s.c. multidose 60 mg (n = 5)): 0 | Pain with touching, related: subjects with at least 1 AE ([2]; s.c. multidose 60 mg (n = 5)): 3 (60%) | Pain without touching, related: subjects with at least 1 AE ([2]; s.c. multidose 60 mg (n = 5)): 0 | Swelling, related: subjects with at least 1 AE ([2]; s.c. multidose 60 mg (n = 5)): 0 | Systemic AEs, related: subjects with at least 1 AE ([2]; s.c. multidose 60 mg (n = 5)): 1 (20%) | All AEs, related: subjects with at least 1 AE ([2]; s.c. multidose 90 mg (n = 5)): 5 (100%) | Erythema, related: subjects with at least 1 AE ([2]; s.c. multidose 90 mg (n = 5)): 5 (100%) | Fatigue, related: subjects with at least 1 AE ([2]; s.c. multidose 90 mg (n = 5)): 1 (20%) | Headache, related: subjects with at least 1 AE ([2]; s.c. multidose 90 mg (n = 5)): 1 (20%) | Hematoma, related: subjects with at least 1 AE ([2]; s.c. multidose 90 mg (n = 5)): 1 (20%)
